Measured values: ChEMBL document CHEMBL2440027, “Further SAR studies on bicyclic basic merbarone analogues as potent antiproliferative agents” (Bioorg Med Chem, 2013)
pIC50: −log10 of the molar value.

Columns and labels:
[1] = test system: SK-MEL-5; assay: Growth inhibition of human SK-MEL-5 cells assessed as cell growth at 10 uM after 48 hrs by sulforhodamine B assay relative to control; format: functional; conditions: SK-MEL-5, 48 h, read-out: Activity
[2] = test system: MDA-MB-435; assay: Growth inhibition of human MDA-MB-435 cells assessed as cell growth at 10 uM after 48 hrs by sulforhodamine B assay relative to control; format: functional; conditions: MDA-MB-435, 48 h, read-out: Activity
[3] = test system: LOX IMVI; assay: Growth inhibition of human LOXIMVI cells assessed as cell growth at 10 uM after 48 hrs by sulforhodamine B assay relative to control; format: functional; conditions: read-out: Activity
[4] = test system: SF-268; assay: Growth inhibition of human SF268 cells assessed as cell growth at 10 uM after 48 hrs by sulforhodamine B assay relative to control; format: functional; conditions: SF-268, 48 h, read-out: Activity
[5] = test system: HeLa; assay: Cytotoxicity against human HeLa cells; format: functional, cell-based; conditions: Homo sapiens, HeLa
[6] = test system: MCF7; assay: Cytotoxicity against human MCF7 cells; format: functional, cell-based
[7] = target: DNA topoisomerase 2-alpha (Homo sapiens, UniProt P11388); assay: Inhibition of human topoisomerase 2alpha-mediated relaxation of supercoiled pBR322 after 1 hr by ethidium bromide staining
[8] = test system: MDA-MB-231; assay: Growth inhibition of human MDA-MB-231 cells after 48 hrs by sulforhodamine B assay; format: functional; conditions: MDA-MB-231, 48 h; for CC50: read-out: LC50 (the source's name)
[9] = test system: SK-OV-3; assay: Growth inhibition of human SKOV3 cells after 48 hrs by sulforhodamine B assay; format: functional; conditions: SK-OV-3, 48 h; for CC50: read-out: LC50 (the source's name)
[10] = test system: OVCAR-8; assay: Growth inhibition of human OVCAR8 cells after 48 hrs by sulforhodamine B assay; format: functional; conditions: OVCAR-8, 48 h
[11] = test system: OVCAR-3; assay: Growth inhibition of human OVCAR3 cells after 48 hrs by sulforhodamine B assay; format: functional; conditions: OVCAR-3, 48 h
[12] = test system: UACC-257; assay: Growth inhibition of human UACC257 cells after 48 hrs by sulforhodamine B assay; format: functional; conditions: UACC-257, 48 h; for CC50: read-out: LC50 (the source's name)
[13] = test system: Malme-3M; assay: Growth inhibition of human MALME-3M cells after 48 hrs by sulforhodamine B assay; format: functional; conditions: for CC50: read-out: LC50 (the source's name)
[14] = test system: HT-29; assay: Growth inhibition of human HT-29 cells after 48 hrs by sulforhodamine B assay; format: functional; conditions: HT-29, 48 h; for CC50: read-out: LC50 (the source's name)
[15] = test system: NCI-H460; assay: Growth inhibition of human NCI-H460 cells after 48 hrs by sulforhodamine B assay; format: functional; conditions: NCI-H460, 48 h
[16] = test system: NCI-H23; assay: Growth inhibition of human NCI-H23 cells after 48 hrs by sulforhodamine B assay; format: functional; conditions: NCI-H23, 48 h
[17] = test system: MOLT-4; assay: Growth inhibition of human MOLT4 cells after 48 hrs by sulforhodamine B assay; format: functional; conditions: MOLT-4, 48 h
[18] = test system: RPMI-8226; assay: Growth inhibition of human RPMI8226 cells after 48 hrs by sulforhodamine B assay; format: functional; conditions: RPMI-8226, 48 h; for CC50: read-out: LC50 (the source's name)
[19] = test system: T47D; assay: Growth inhibition of human T47D cells assessed as cell growth at 10 uM after 48 hrs by sulforhodamine B assay relative to control; format: functional; conditions: read-out: Activity
[20] = test system: HOP-92; assay: Growth inhibition of human HOP92 cells assessed as cell growth at 10 uM after 48 hrs by sulforhodamine B assay relative to control; format: functional; conditions: HOP-92, 48 h, read-out: Activity

Chain of DNA topoisomerase 2-alpha (P11388 whole entry): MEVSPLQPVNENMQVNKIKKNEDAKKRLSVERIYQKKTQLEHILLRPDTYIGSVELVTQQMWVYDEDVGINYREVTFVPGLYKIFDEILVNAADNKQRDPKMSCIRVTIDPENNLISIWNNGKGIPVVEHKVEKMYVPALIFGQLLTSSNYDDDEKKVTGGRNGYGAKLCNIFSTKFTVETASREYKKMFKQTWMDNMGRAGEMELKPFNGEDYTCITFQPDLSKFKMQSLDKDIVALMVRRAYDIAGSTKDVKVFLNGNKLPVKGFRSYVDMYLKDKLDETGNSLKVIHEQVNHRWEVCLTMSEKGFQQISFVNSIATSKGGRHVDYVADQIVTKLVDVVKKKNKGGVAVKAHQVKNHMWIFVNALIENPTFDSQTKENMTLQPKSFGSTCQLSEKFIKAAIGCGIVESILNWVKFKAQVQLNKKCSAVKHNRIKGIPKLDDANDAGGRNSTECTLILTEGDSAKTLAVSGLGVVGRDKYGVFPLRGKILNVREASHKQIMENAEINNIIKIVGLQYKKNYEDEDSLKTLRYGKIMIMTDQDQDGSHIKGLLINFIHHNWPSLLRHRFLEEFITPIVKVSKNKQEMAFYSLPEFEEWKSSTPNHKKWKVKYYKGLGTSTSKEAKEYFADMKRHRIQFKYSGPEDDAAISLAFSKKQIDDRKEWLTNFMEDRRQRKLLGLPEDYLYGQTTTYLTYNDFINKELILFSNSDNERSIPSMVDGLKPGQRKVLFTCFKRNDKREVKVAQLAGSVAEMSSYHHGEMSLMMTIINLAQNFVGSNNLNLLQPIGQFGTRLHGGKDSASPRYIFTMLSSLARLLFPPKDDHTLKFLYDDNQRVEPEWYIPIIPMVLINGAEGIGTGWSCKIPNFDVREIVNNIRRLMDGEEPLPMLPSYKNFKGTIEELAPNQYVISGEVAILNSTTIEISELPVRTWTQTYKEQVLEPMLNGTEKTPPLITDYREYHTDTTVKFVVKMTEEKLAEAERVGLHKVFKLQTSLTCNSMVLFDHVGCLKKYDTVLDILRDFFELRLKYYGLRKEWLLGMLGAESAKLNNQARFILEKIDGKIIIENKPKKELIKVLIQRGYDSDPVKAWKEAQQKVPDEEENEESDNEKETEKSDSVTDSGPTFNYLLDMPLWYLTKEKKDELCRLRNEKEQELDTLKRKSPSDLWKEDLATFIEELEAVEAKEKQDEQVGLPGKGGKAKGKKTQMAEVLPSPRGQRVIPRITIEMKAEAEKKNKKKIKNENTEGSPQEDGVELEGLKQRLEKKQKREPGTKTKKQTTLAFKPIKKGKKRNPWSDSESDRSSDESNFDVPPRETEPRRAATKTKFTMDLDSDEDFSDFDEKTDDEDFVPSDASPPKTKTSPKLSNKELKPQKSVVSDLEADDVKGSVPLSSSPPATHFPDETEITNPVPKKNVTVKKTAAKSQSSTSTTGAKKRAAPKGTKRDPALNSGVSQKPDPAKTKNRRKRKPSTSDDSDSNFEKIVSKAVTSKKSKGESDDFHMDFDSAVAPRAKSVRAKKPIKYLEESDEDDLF

| SMILES | growth at 10 µM [1] [%] | growth at 10 µM [2] [%] | growth at 10 µM [3] [%] | growth at 10 µM [4] [%] | GI50 [8] [nM] | TGI [8] [nM] | CC50 [8] [nM] | GI50 [9] [nM] | TGI [9] [nM] | CC50 [9] [nM] | GI50 [10] [nM] | TGI [10] [nM] | GI50 [11] [nM] | LC50 [11] [nM] | TGI [11] [nM] | GI50 [12] [nM] | TGI [12] [nM] | CC50 [12] [nM] | GI50 [13] [nM] | TGI [13] [nM] | also measured |
| --- | --- | --- | --- | --- | --- | --- | --- | --- | --- | --- | --- | --- | --- | --- | --- | --- | --- | --- | --- | --- | --- |
| CN(C)CCNc1nc2c(c(=N)n1-c1ccccc1)c(=S)n(-c1ccccc1)c(=S)n2-c1ccccc1 | -98.8 | -64.5 | -61.4 | 24 | 1800 | 5600 | 24700 | 10300 | 24100 | 56700 | 4100 | 15700 | 3000 | 45400 | 12500 | 1700 | 3600 | 7500 | 2600 | 5000 | pIC50 [5]: 4.90; pIC50 [6]: 4.80; pIC50 [7]: < 4.00; CC50 ([10]; read-out: LC50 (the source's name)): 58700 nM; CC50 [13]: 9500 nM; GI50 [14]: 1400 nM; TGI [14]: 3400 nM; CC50 [14]: 8300 nM; GI50 [15]: 3200 nM; LC50 [15]: 61200 nM; TGI [15]: 11800 nM; GI50 [16]: 16800 nM; TGI [16]: 42100 nM; GI50 [17]: 1800 nM; LC50 [17]: 17200 nM; TGI [17]: 4700 nM; GI50 [18]: 400 nM; TGI [18]: 2200 nM; CC50 [18]: 7300 nM; growth at 10 µM [19]: -19.4% |
| CCCCN(CCCC)CCCNc1nc2c(c(=N)n1-c1ccccc1)c(=S)n(-c1ccccc1)c(=S)n2-c1ccccc1 | -100 | -100 | -89.7 | -94 | 300 | 900 | 3000 | 1500 | 2900 | 5800 | 900 | 2700 | 800 | 4600 | 2100 | 200 | 400 | 900 | 200 | 500 | growth at 10 µM [20]: -66.9%; CC50 [13]: 1500 nM; GI50 [14]: 200 nM; TGI [14]: 500 nM; CC50 [14]: 1800 nM; GI50 [15]: 400 nM; LC50 [15]: 4000 nM; TGI [15]: 1600 nM; GI50 [16]: 1600 nM; LC50 (concentration killing 50% of cells) [16]: 8400 nM; TGI [16]: 3400 nM; GI50 [17]: 300 nM; GI50 [18]: 200 nM; TGI [18]: 300 nM; CC50 [18]: 700 nM; growth at 10 µM [19]: -62.1% |
